2 molecules from US20190054051A1, “DOPA Formulations for Treatments of Parkinson's Disease” (The Board of Trustees of the Leland Stanford Junior …, priority 2017, published 2019) can be followed below.

For one experiment, the system named is Akt. Description: Western blot of phospho Akt (T308, S473) in striatum. Also on record: species or system mice. The following applies: mouse, in vivo. As for the experimental part: After behavioral testing, mice again received their assigned injection and then, 45 minutes later, were decapitated under anesthesia. Tissue samples were processed as follows. Briefly, the brain was dissected, rapidly frozen on dry ice, and stored at −80° C. Striatal tissue was collected from 100 μm coronal slices cut at the level of striatum using a cryostat (Leica CM1950, Leica Biosystems Inc, Buffalo Groove, Ill.). Striatal samples from the intact and the lesioned hemisphere were separately collected in 150p1 of lysis solution (Totally RNA, Ambion, Austin, Tex.). Care was taken to make sure that the tissue samples were collected from similar regions in all the brain samples analyzed, since there are differences in the expression of GRKs from rostral to caudal CPu. Protein concentration was estimated using Bradford reagent (Bio-Rad, Hercules, Calif.). 200m protein was precipitated with 100% methanol and centrifuged at 10000 g for 10 mins in a table top centrifuge. The pellet was re-suspended in 90% methanol and centrifuged for an additional 10 mins at 10000 g. The supernatant was discarded and the pellet was air dried and dissolved in 400 μL of β-mercaptoethanol containing 2× Laemmli sample buffer (Biorad, Hercules, Calif.), for a final concentration of 0.5 mg/mL. These samples were stored at −80° C. until use. Samples were electrophoresed through 10% polyacrylamide gels and transferred on to Immobilon-P PVDF membranes (Millipore, Bedford, Mass.) and processed. […] Western blots were quantified using band densitometry in Image J software (NIH version). […] Results are represented as group mean±SEM and analyzed using one-way or repeated-measures ANOVA (RM-ANOVA), with post hoc Bonferroni tests. The mouse cylinder test was analyzed with RM-ANOVA, with group (DOPA and DOPA-ranitidine formulations) as a between-group factor and saline vs. DOPA treatment as a within-group factor. AIMs scores were analyzed using the Kruskal Wallis test for pre-testing (DOPA injected animals) and the Mann-Whitney U test for the post-testing sessions (DOPA vs DOPA-ranitidine formulations). […]
(A western blot detects proteins with antibodies after separation by electrophoresis.)

The subject of another experiment is GRK6. Kind of experiment: Western blot of GRK6 in intact and lesioned striatum. The format is in vivo, mice. To be noted: normalized to actin. As for the experimental part:
After behavioral testing, mice again received their assigned injection and then, 45 minutes later, were decapitated under anesthesia. Tissue samples were processed as follows. Briefly, the brain was dissected, rapidly frozen on dry ice, and stored at −80° C. Striatal tissue was collected from 100 μm coronal slices cut at the level of striatum using a cryostat (Leica CM1950, Leica Biosystems Inc, Buffalo Groove, Ill.). Striatal samples from the intact and the lesioned hemisphere were separately collected in 150p1 of lysis solution (Totally RNA, Ambion, Austin, Tex.). Care was taken to make sure that the tissue samples were collected from similar regions in all the brain samples analyzed, since there are differences in the expression of GRKs from rostral to caudal CPu. […]
Western blots were quantified using band densitometry in Image J software (NIH version). […] Results are represented as group mean±SEM and analyzed using one-way or repeated-measures ANOVA (RM-ANOVA), with post hoc Bonferroni tests. The mouse cylinder test was analyzed with RM-ANOVA, with group (DOPA and DOPA-ranitidine formulations) as a between-group factor and saline vs. DOPA treatment as a within-group factor. AIMs scores were analyzed using the Kruskal Wallis test for pre-testing (DOPA injected animals) and the Mann-Whitney U test for the post-testing sessions (DOPA vs DOPA-ranitidine formulations). […]

For `N[C@@H](Cc1ccc(O)c(O)c1)C(=O)O` [L-DOPA, L-3,4-dihydroxyphenylalanine], in the experiment with Akt, the “Akt phosphorylation at Ser473” value is on record as “not statistically significant” and the “Akt phosphorylation at Thr308 in the lesioned striatum” value was “elevated in the lesioned striatum”. For the same molecule, the “GRK6 in the lesioned hemisphere versus the intact control side” value in the experiment with GRK6 is “Only a marginal degree of down regulation”.

Regarding `CN/C(=C\[N+](=O)[O-])NCCSCc1ccc(CN(C)C)o1` [Ranitidine, N-(2-[(5-[(dimethylamino)methyl]furan-2-yl)methylthio]ethyl)-N′-methyl-2-nitroethene-1,1-diamine], the “Akt phosphorylation at Thr308 in the lesioned striatum” value with Akt was “no effect”. In the experiment on GRK6, the “GRK6 in the lesioned hemisphere versus the intact control side” value was “enhanced the expression”.
